Measured values published in US8247211B2, “Glycopeptide antibiotics” (American Cyanamid Company, priority 2001, dated 2012).
Values after ≈ are worked out from the molar mass of the structure shown.

Tests used:
Test in all cases: In vitro antibacterial evaluation: minimum inhibitory concentration (MIC), broth dilution method
Type in all cases: cell-based
[1] = system: Streptococcus sp.
Summary of the method: (§1)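 Following NCCLS approved standard M7-A2, compounds are serially diluted from 64 to 0.06 μg/mL in Muller-Hinton II […] and inoculated at 5×10^5 CFU/mL; the MIC is the minimum concentration at which growth is inhibited.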

[2] = system: Enterococcus sp.
Summary of the method: as §1

[3] = system: Escherichia coli
Summary of the method: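 NCCLS M7-A2 broth dilution; Muller-Hinton II […]; 5×10^5 CFU/mL; 64-0.06 μg/mL. MIC = lowest concentration with no growth.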

[4] = system: Staphylococcus sp.; details: broth dilution, 18 hours at 35° C.
Summary of the method: as §1

COc1cc(OC)cc(C2OCC3OC(OC4C(CO)OC(Oc5ccc(CC6NC(=O)C(C(C)c7ccccc7)NC(=O)CNC(=O)C(CO)NC(=O)C(C(O)C7CNC(=N)N7C7OC(CO)C(O)C(O)C7O)NC(=O)C(C(O)C7CNC(=N)N7)NC6=O)cc5)C(O)C4O)C(O)C(O)C3O2)c1 (stereo not drawn) [Example 150, Cyclo[glycyl-β-methylphenylalanyl-O-[4-O-[4,6-O-(3,5-dimethoxybenzylidene)hexopyranosyl]-hexopyranosyl]tyrosyl-3-(2-iminoimidazolidin-4-yl)seryl-3-(3-hexopyranosyl-2-iminoimidazolidin-4-yl)serylseryl]]
MIC Streptococcus pneumoniae (ATCC 6301) ([1]; strain ATCC 6301): 0.25 µg/mL (≈ 0.173 µM)
MIC Streptococcus pneumoniae (GC 1894) ([1]; strain GC 1894): 0.12 µg/mL (≈ 0.0831 µM)
MIC Streptococcus pyogenes (GC 4563) ([1]; strain GC 4563): 0.5 µg/mL (≈ 0.346 µM)
MIC Streptococcus agalactiae (GC 4564) ([1]; strain GC 4564): 1 µg/mL (≈ 0.693 µM)
MIC Streptococcus pneumoniae (GC 4565) ([1]; strain GC 4565): 0.25 µg/mL (≈ 0.173 µM)
MIC Enterococcus faecalis (ATCC 29212) ([2]; strain ATCC 29212): 8 µg/mL (≈ 5.54 µM)
MIC Enterococcus faecalis (GC 2242) ([2]; strain GC 2242): 4 µg/mL (≈ 2.77 µM)
MIC Enterococcus faecium (GC 2243) ([2]; strain GC 2243): 8 µg/mL (≈ 5.54 µM)
MIC Enterococcus faecalis (GC 2691) ([2]; strain GC 2691): 4 µg/mL (≈ 2.77 µM)
MIC Enterococcus faecalis (GC 3059) ([2]; strain GC 3059): 8 µg/mL (≈ 5.54 µM)
MIC Enterococcus faecalis (GC 4552) ([2]; strain GC 4552): 8 µg/mL (≈ 5.54 µM)
MIC Enterococcus faecalis (GC 4553) ([2]; strain GC 4553): 8 µg/mL (≈ 5.54 µM)
MIC Enterococcus faecalis (GC 4554) ([2]; strain GC 4554): 8 µg/mL (≈ 5.54 µM)
MIC Enterococcus faecium (GC 4556) ([2]; strain GC 4556): 8 µg/mL (≈ 5.54 µM)
MIC Enterococcus faecium (GC 4557) ([2]; strain GC 4557): 4 µg/mL (≈ 2.77 µM)
MIC Enterococcus avium (GC 4558) ([2]; strain GC 4558): 8 µg/mL (≈ 5.54 µM)
MIC Enterococcus faecalis (GC 6189) ([2]; strain GC 6189): 8 µg/mL (≈ 5.54 µM)
MIC Escherichia coli (ATCC 25922) ([3]; strain ATCC 25922): >64 µg/mL
MIC Escherichia coli (GC 4559) ([3]; strain GC 4559): 32 µg/mL (≈ 22.2 µM)
MIC Escherichi coli (GC 4560) ([3]; strain GC 4560): 1 µg/mL (≈ 0.693 µM)
MIC Coagulase Negative Staphylococcus (GC 4547) ([4]; 5×10^5 CFU/mL): 2 µg/mL (≈ 1.39 µM)
MIC Coagulase Negative Staphylococcus (GC 4548) ([4]; 5×10^5 CFU/mL): 1 µg/mL (≈ 0.693 µM)
MIC Coagulase Negative Staphylococcus (GC 4549) ([4]; 5×10^5 CFU/mL): 1 µg/mL (≈ 0.693 µM)
MIC Coagulase Negative Staphylococcus (GC 4551) ([4]; 5×10^5 CFU/mL): 2 µg/mL (≈ 1.39 µM)
MIC Coagulase Negative Staphylococcus (GC 6257) ([4]; 5×10^5 CFU/mL): 1 µg/mL (≈ 0.693 µM)
MIC Staphylococcus aureus (ATCC 29213) ([4]; 5×10^5 CFU/mL): 2 µg/mL (≈ 1.39 µM)
MIC Staphylococcus aureus (GC 1131) ([4]; 5×10^5 CFU/mL): 4 µg/mL (≈ 2.77 µM)
MIC Staphylococcus aureus (GC 3051) ([4]; 5×10^5 CFU/mL): 2 µg/mL (≈ 1.39 µM)
MIC Staphylococcus aureus (GC 3053) ([4]; 5×10^5 CFU/mL): 8 µg/mL (≈ 5.54 µM)
MIC Staphylococcus aureus (GC 4541) ([4]; 5×10^5 CFU/mL): 2 µg/mL (≈ 1.39 µM)
MIC Staphylococcus aureus (GC 4542) ([4]; 5×10^5 CFU/mL): 2 µg/mL (≈ 1.39 µM)
MIC Staphylococcus aureus (GC 4544) ([4]; 5×10^5 CFU/mL): 2 µg/mL (≈ 1.39 µM)
MIC Staphylococcus aureus (GC 4545) ([4]; 5×10^5 CFU/mL): 2 µg/mL (≈ 1.39 µM)
MIC Staphylococcus aureus-SMITH (GC 4543) ([4]; 5×10^5 CFU/mL): 2 µg/mL (≈ 1.39 µM)
MIC Staphylococcus haemolyticus (GC 4546) ([4]; 5×10^5 CFU/mL): 1 µg/mL (≈ 0.693 µM)
MIC Staphylococcus aureus (ATCC 29213) ([4]; strain ATCC 29213): 2 µg/mL (≈ 1.39 µM)
MIC Staphylococcus aureus (GC 1131) ([4]; strain GC 1131): 4 µg/mL (≈ 2.77 µM)
MIC Staphylococcus aureus (GC 3051) ([4]; strain GC 3051): 2 µg/mL (≈ 1.39 µM)
MIC Staphylococcus aureus (GC 3053) ([4]; strain GC 3053): 8 µg/mL (≈ 5.54 µM)
MIC Staphylococcus aureus (GC 4541) ([4]; strain GC 4541): 2 µg/mL (≈ 1.39 µM)
MIC Staphylococcus aureus (GC 4542) ([4]; strain GC 4542): 2 µg/mL (≈ 1.39 µM)
MIC Staphylococcus aureus-SMITH (GC 4543) ([4]; strain GC 4543): 2 µg/mL (≈ 1.39 µM)
MIC Staphylococcus aureus (GC 4544) ([4]; strain GC 4544): 2 µg/mL (≈ 1.39 µM)
MIC Staphylococcus aureus (GC 4545) ([4]; strain GC 4545): 2 µg/mL (≈ 1.39 µM)
MIC Staphylococcus haemolyticus (GC 4546) ([4]; strain GC 4546): 1 µg/mL (≈ 0.693 µM)
MIC Coagulase Negative Staphylococcus (GC 4547) ([4]; strain GC 4547): 2 µg/mL (≈ 1.39 µM)
MIC Coagulase Negative Staphylococcus (GC 4548) ([4]; strain GC 4548): 1 µg/mL (≈ 0.693 µM)
MIC Coagulase Negative Staphylococcus (GC 4549) ([4]; strain GC 4549): 1 µg/mL (≈ 0.693 µM)
MIC Coagulase Negative Staphylococcus (GC 4551) ([4]; strain GC 4551): 2 µg/mL (≈ 1.39 µM)
MIC Coagulase Negative Staphylococcus (GC 6257) ([4]; strain GC 6257): 1 µg/mL (≈ 0.693 µM)
